# Experimental data reported in patent US20230256007A1 (priority 2022, published 2023).
# Tests used:
# [1] = system: patient with sequelae of infection with the delta variant of coronavirus; conditions: Case 1
# Description: Although the patient was cured after home care, their activity level was lower than that of a healthy person. Fatigue, pain, and decrease in thinking power progressed extremely, and the level of daily life decreased below the level of a healthy person, so they underwent a medical examination at the hospital. The diagnosis based on the physician’s diagnostic criteria was as follows. • (i) Fatigue - persistent, fatigue so pronounced that the activity level is severely impaired: severity 3 (severe) • (ii) Feeling of fatigue after exertion - loss of physical and mental endurance, fatigue aggravated by physical exertion: severity 3 (severe) • (iii) Long recovery time from exertion - it takes 24 hours or more to recover to pre-exertion activity level: severity 2 (moderate) • (iv) Pain - muscle pain, joint pain, headache: severity 2 (moderate) • (v) Sleeping disorder - nonrestorative sleep, insomnia, hypersomnia: severity 2 (moderate) • (vi) Confusion and loss of concentration: severity 2 (moderate) • (vii) Memory impairment - short-term memory is impaired: severity 1 (mild) • (viii) Shortness of breath associated with exertion: severity 2 (moderate) • (ix) Gastrointestinal disorder - diarrhea, irritable bowel syndrome: severity 1 (mild) • (x) Repeated sore throat: severity 1 (mild) • (xi) Dizziness when standing up or fragility: severity 1 (mild) • (xii) Heat/cold intolerance: severity 1 (mild) • (xiii) Body temperature changes, irregular body temperature, cold hands and feet: severity 1 (mild)
# [2] = system: patient with sequelae of influenza virus type A infection; conditions: Case 3
# [3] = after 4 weeks of inhalation, before inhalation severity 2: moderate
# [4] = around 3 weeks after inhalation
compound,measurement,setting,value
"[HH] [hydrogen gas, hydrogen]","Effect on chronic fatigue, pain, and brain fog (summary)",[1],clearly effective
same,Feeling on inhalation (sympathetic nerves high before inhalation),[1]; after 2 weeks of inhalation,felt relaxed and drowsy
same,Foggy head / brain fog,[1]; after 2 weeks of inhalation,their head appeared clear and refreshed
same,Frequency of headache and generalized pain,[1]; after 2 weeks of inhalation,seemed to decrease
same,Number of doses of analgesics,[1]; after 2 weeks of inhalation,decreased
same,Bedridden chronic severe fatigue (patient's impression),[1]; after 4 weeks of inhalation,significantly alleviated
same,Cognitive ability (patient's impression),[1]; after 4 weeks of inhalation,regained some of their writing and summarizing skills
same,Foggy feeling in the brain (patient's impression),[1]; after 4 weeks of inhalation,alleviated
same,Number of doses of analgesics relative to that before hydrogen inhalation,[1]; after 4 weeks of inhalation,¼
same,Other symptoms (not significantly recovered),[1]; after 4 weeks of inhalation,did not worsen
same,Sleeping disorder,[1]; after 4 weeks of inhalation,same strong symptoms as before
same,Long recovery time from exertion: severity after inhalation (physician's diagnosis),[1]; [3],severity 1: mild
same,Loss of concentration: severity after inhalation (physician's diagnosis),[1]; [3],severity 1: mild
same,"Pain, headache: severity after inhalation (physician's diagnosis)",[1]; [3],severity 1: mild
same,Repeated sore throat: severity after inhalation (physician's diagnosis),[1]; [3],severity 1: mild
same,"Fatigue - persistent, activity level severely impaired: severity after inhalation (physician's diagnosis)","[1]; after 4 weeks of inhalation, before inhalation severity 3: severe","severity 1: mild, or severity 2: moderate"
same,Days on which they feel better like a healthy person,"[1]; after 4 weeks of inhalation, still falls asleep 2 or 3 days a week",more than half the days of the week
same,"Pain due to training, the next day",[1]; inhalation for about 90 minutes every day,almost eliminated the pain the next day
same,Falling asleep 1 to 2 hours after exertion (sudden intense fatigue),[1]; inhaling hydrogen for about 90 minutes,can avoid falling asleep
same,Frequency of headache (patient's impression),"[1]; since the start of inhalation, once or twice a week before","decreased significantly, and headache has almost disappeared"
same,Muscle pain and joint pain after training,[1]; two weeks after starting inhalation,began to be greatly alleviated
same,Number of days without naps,[2]; after 8 weeks,increased
same,Amount of time for physical activity,"[2]; after 8 weeks, although there was malaise",increased
same,Bowel movements and decreased motivation,[2]; [4],improvement
same,Nap time,[2]; [4],decreased
same,General feeling,"[2]; around 3 weeks after inhalation, about 4% to 5% hydrogen, 5 hours per day",felt a little lighter
